Assay results: ChEMBL document CHEMBL2390843, “Design, synthesis and antitumour activity of bisquinoline derivatives connected by 4-oxy-3-fluoroaniline moiety” (Eur J Med Chem, 2013)

How the values were obtained:
SMMC-7721 = assay: Cytotoxicity against human SMMC7721 cells after 72 hrs by MTT assay; details: SMMC-7721, 72 h
HT-29 = assay: Cytotoxicity against human HT-29 cells after 72 hrs by MTT assay; details: HT-29, 72 h
MKN-45 = assay: Cytotoxicity against human MKN45 cells after 72 hrs by MTT assay; details: MKN-45, 72 h
[1] = Cytotoxicity against human H460 cells after 72 hrs by MTT assay; details: NCI-H460, 72 h
[2] = Cytotoxicity against human U87MG cells after 72 hrs by MTT assay; format: functional, cell-based, U-87MG ATCC; details: U-87 MG

Row | Structure (SMILES) | IC50 (SMMC-7721) [nM] | IC50 (HT-29) [nM] | IC50 (MKN-45) [nM] | IC50 [1] [nM] | IC50 [2] [nM]
1 | COc1cc2c(Oc3ccc(NC(=O)c4cc(-c5ccc(C)cc5)nc5ccccc45)cc3F)ccnc2cc1OCCCN1CCCC1 | 520 | 850 | 300 | 240 | –
2 | COc1cc2c(Oc3ccc(NC(=O)c4cc(-c5cccc(Cl)c5)nc5ccccc45)cc3F)ccnc2cc1OCCCN1CCC(C)CC1 | 80 | 100 | 30 | 65 | 580
3 | COc1cccc(-c2cc(C(=O)Nc3ccc(Oc4ccnc5cc(OCCCN6CCOCC6)c(OC)cc45)c(F)c3)c3ccccc3n2)c1 | 1130 | 3050 | 110 | 560 | –
4 | COc1ccc(-c2cc(C(=O)Nc3ccc(Oc4ccnc5cc(OCCCN6CCC(C)CC6)c(OC)cc45)c(F)c3)c3ccccc3n2)cc1 | 450 | 1110 | 320 | 110 | –
5 | COc1cc2c(Oc3ccc(NC(=O)c4cc(-c5cccc(Cl)c5)nc5ccccc45)cc3F)ccnc2cc1OCCCN1CCOCC1 | 320 | 1080 | 35 | 80 | 1470
6 | COc1cccc(-c2cc(C(=O)Nc3ccc(Oc4ccnc5cc(OCCCN6CCCCC6)c(OC)cc45)c(F)c3)c3ccccc3n2)c1 | 380 | 1740 | 360 | 210 | –
7 | COc1cc2c(Oc3ccc(NC(=O)c4cc(-c5ccccc5)nc5ccc(F)cc45)cc3F)ccnc2cc1OCCCN1CCCC1 | – | 160 | 110 | 90 | 960
8 | COc1cc2c(Oc3ccc(NC(=O)c4cc(-c5ccc(C)cc5)nc5ccc(F)cc45)cc3F)ccnc2cc1OCCCN1CCCCC1 | – | 500 | 170 | 260 | 1050
9 | COc1cc2c(Oc3ccc(NC(=O)c4cc(-c5ccc(C(F)(F)F)cc5)nc5ccccc45)cc3F)ccnc2cc1OCCCN1CCOCC1 | 100 | 230 | 12 | 68 | 1010
10 | COc1cc2c(Oc3ccc(NC(=O)c4cc(-c5ccccc5)nc5ccccc45)cc3F)ccnc2cc1OCCCN1CCC(C)CC1 | 160 | 120 | 19 | 68 | 920
11 | COc1cc2c(Oc3ccc(NC(=O)c4cc(-c5ccc(Cl)c(Cl)c5)nc5ccccc45)cc3F)ccnc2cc1OCCCN1CCCC1 | 340 | 1960 | 170 | 400 | –
12 | COc1ccc(-c2cc(C(=O)Nc3ccc(Oc4ccnc5cc(OCCCN6CCOCC6)c(OC)cc45)c(F)c3)c3ccccc3n2)cc1 | 1180 | 3190 | 160 | 750 | –
13 | COc1cc2c(Oc3ccc(NC(=O)c4cc(-c5ccccc5)nc5ccc(F)cc45)cc3F)ccnc2cc1OCCCN1CCCCC1 | – | 120 | 30 | 32 | 690
14 | COc1cc2c(Oc3ccc(NC(=O)c4cc(-c5ccc(Cl)c(Cl)c5)nc5ccccc45)cc3F)ccnc2cc1OCCCN1CCCCC1 | 770 | 1210 | 730 | 820 | –
15 | COc1cc2c(Oc3ccc(NC(=O)c4cc(-c5ccc(F)cc5)nc5ccc(F)cc45)cc3F)ccnc2cc1OCCCN1CCOCC1 | – | 250 | 51 | 27 | 2150
16 | COc1cccc(-c2cc(C(=O)Nc3ccc(Oc4ccnc5cc(OCCCN6CCCCC6)c(OC)cc45)c(F)c3)c3cc(F)ccc3n2)c1 | – | 2500 | 690 | 1000 | 1610
17 | COc1cc2c(Oc3ccc(NC(=O)c4cc(-c5ccc(F)cc5)nc5ccccc45)cc3F)ccnc2cc1OCCCN1CCCCC1 | 74 | 130 | 28 | 21 | 980
